Assay results as given in ChEMBL document CHEMBL1130432, “Neuritogenic effect of epolactaene derivatives on human neuroblastoma cells which lack high-affinity nerve growth factor receptors” (1997).

Tests used:
Type in all cases: functional, Homo sapiens
SH-SY5Y [1] = experiment: Ability to induce neurite outgrowth in SH-SY5Y cells measured as percentage of neurite bearing cells/total cells at 25.4 uM; Range is 5-20%
SH-SY5Y [2] = experiment: Ability to induce neurite outgrowth in SH-SY5Y cells measured as percentage of neurite bearing cells/total cells at 98.8 uM; Range is 5-20%
SH-SY5Y [3] = experiment: Ability to induce neurite outgrowth in SH-SY5Y cells measured as percentage of neurite bearing cells/total cells at 59.4 uM
SH-SY5Y [4] = experiment: Ability to induce neurite outgrowth in SH-SY5Y cells measured as percentage of neurite bearing cells/total cells at 29.5 uM; Range is 5-20%
SH-SY5Y [5] = experiment: Ability to induce neurite outgrowth in SH-SY5Y cells measured as percentage of neurite bearing cells/total cells at 17.8 uM; Range is 20-40%
SH-SY5Y [6] = experiment: Ability to induce neurite outgrowth in SH-SY5Y cells measured as percentage of neurite bearing cells/total cells at 118.8 uM; Range is 5-20%

In the case of `CCCCCCCCCCCCCCCCN1C(=O)C(C(C)=O)=C(C)C1(C)O` (stereo unspecified), the “Neurite bearing cells/total cells” value (SH-SY5Y [1]) is reported as 20%.
In the case of `CCCCCCOC1(C)NC(=O)C(C(C)=O)=C1C` (stereo unspecified), the “Neurite bearing cells/total cells” value (SH-SY5Y [2]) is reported as 20%.
`CCCCCCCCCCCCCCCCCCOC1(C)NC(=O)C(C(C)=O)=C1C` (stereo unspecified) was tested, and the “Neurite bearing cells/total cells” value (SH-SY5Y [3]) was over 40%.
For `CCCCCCCCCCCCN1C(=O)C(C(C)=O)=C(C)C1(C)O` (stereo unspecified), the “Neurite bearing cells/total cells” value (SH-SY5Y [4]) was 20%.
`CCCCCCCCN1C(=O)C(C(C)=O)=C(C)C1(C)O` (stereo unspecified) was tested, and the “Neurite bearing cells/total cells” value (SH-SY5Y [5]) was 40%.
`CCCCCCCCCCCCCCCCCCN1C(=O)C(C(C)=O)=C(C)C1(C)O` (stereo unspecified) was tested, and the “Neurite bearing cells/total cells” value (SH-SY5Y [6]) was 20%.
